Our source for the inhibition and Ki values is US7998978B2 (Pfizer Inc., priority 2006, dated 2011).

The target of the first experiment is T1, JNK1α1 (Homo sapiens, UniProt P45983).
T1 construct: catalytic domain containing amino acids 1-364 and N-terminal hexahistidine tag; hexahistidine (His6) (N); made in house; host or cells: E. coli BL21 (DE3)
T1 sequence (P45983 1-364): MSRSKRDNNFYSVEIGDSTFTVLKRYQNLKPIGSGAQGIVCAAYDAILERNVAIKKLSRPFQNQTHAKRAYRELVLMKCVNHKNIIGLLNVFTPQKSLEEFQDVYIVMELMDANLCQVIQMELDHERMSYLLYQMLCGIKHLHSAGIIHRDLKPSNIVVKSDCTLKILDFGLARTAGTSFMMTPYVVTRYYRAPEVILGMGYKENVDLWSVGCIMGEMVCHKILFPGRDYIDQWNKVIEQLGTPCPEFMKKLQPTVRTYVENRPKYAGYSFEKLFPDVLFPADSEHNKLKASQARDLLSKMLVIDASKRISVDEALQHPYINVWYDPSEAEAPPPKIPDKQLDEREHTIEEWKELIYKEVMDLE
Put plainly: Coupled spectrophotometric (PK/LDH) JNK1α1 assay: % inhibition and Ki determination. It counts as biochemical. To be noted: @1 uM; read-out: % Inhibition JNK-1. Put shortly:
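Initial rates were taken from the absorbance decrease at 340 nm at 30° C. Ki was fitted with a tight-binding model over 11 concentrations (top 100 μM); single-point inhibition was tested at 1 or 10 μM.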
As a reminder, the inhibition is how much of the control response was suppressed. Regarding `CN(C)C(C)(C)COc1ccc2cnc(N[C@H]3CC[C@H](O)CC3)nc2c1` [Example 269, trans-4-({7-[2-(dimethylamino)-2-methylpropoxy]quinazolin-2-yl}amino)cyclohexanol], the inhibition at 1 µM was determined as 29%. `Cc1noc(CNC(=O)c2cccc3cnc(N[C@H]4CC[C@H](O)CC4)nc23)n1` [Example 530, 2-[(trans-4-hydroxycyclohexyl)amino]-N-[(3-methyl-1,2,4-oxadiazol-5-yl)methyl]quinazoline-8-carboxamide]: the inhibition at 1 µM was 26%. Still for that read-out and setting: next, `O[C@H]1CC[C@H](Nc2ncc3ccc(OC[C@@H]4CCCN5CCCC[C@H]45)cc3n2)CC1` [Example 283, trans-4-({7-[(1R,9aR)-octahydro-2H-quinolizin-1-ylmethoxy]quinazolin-2-yl}amino)cyclohexanol]: 33%.

Take `O=C(NCCc1cn2cccnc2n1)c1cccc2cnc(N[C@H]3CC[C@H](O)CC3)nc12` [Example 499, 2-[(trans-4-hydroxycyclohexyl)amino]-N-(2-imidazo[1,2-a]pyrimidin-2-ylethyl)quinazoline-8-carboxamide]: the inhibition at 1 µM amounted to 8%.

Staying with this experiment, now noted: JNK-1.
The Ki is the equilibrium dissociation constant of an inhibitor or competing ligand from its target. A lower Ki goes with a stronger hold on the target. For the molecule `CN(C)C(=O)CNC(=O)c1ccc2cnc(N[C@H]3CC[C@H](O)CC3)nc2c1` [Example 368, N-[2-(dimethylamino)-2-oxoethyl]-2-[(trans-4-hydroxycyclohexyl)amino]quinazoline-7-carboxamide], affinity was put at a Ki of 2290 nM. Take `C[C@H](CO)NC(=O)c1cccc2cnc(N[C@H]3CC[C@H](O)CC3)nc12` [Example 123, 2-[(trans-4-hydroxycyclohexyl)amino]-N-[(1R)-2-hydroxy-1-methylethyl]quinazoline-8-carboxamide]: the Ki was found to be 634 nM. The same measure, in the same setting: next, `CC[C@H](C)[C@@H](CO)NC(=O)c1ccc2cnc(N[C@H]3CC[C@H](O)CC3)nc2c1` [Example 378, 2-((trans-4-hydroxycyclohexyl)amino]-N-[(1S,2S)-1-(hydroxymethyl)-2-methylbutyl]quinazoline-7-carboxamide]: 160 nM; `O=C(NCc1nc2cc(F)ccc2[nH]1)c1ccc2cnc(N[C@H]3CC[C@H](O)CC3)nc2c1` [Example 354, N-[(5-fluoro-1H-benzimidazol-2-yl)methyl]-2-[(trans-4-hydroxycyclohexyl)amino]quinazoline-7-carboxamide]: 1230 nM. Take `NCCOc1ccc(-c2cccc3cnc(N[C@H]4CC[C@H](O)CC4)nc23)cc1` [Example 202, trans-4-({8-[4-(2-aminoethoxy)phenyl]quinazolin-2-yl}amino) cyclohexanol]: the Ki was found to be 77 nM. The same measure, in the same setting: next, `CC(C)CC(=O)Nc1cc2cc(-c3cn[nH]c3)ccc2cn1` [Example 11, 3-methyl-N-[6-(1H-pyrazol-4-yl)isoquinolin-3-yl]butanamide]: 26 nM; `CC(C)NC(=O)c1ccc2cnc(N[C@H]3CC[C@H](O)CC3)nc2c1` [Example 64, 2-[(trans-4-hydroxycyclohexyl)amino]-N-isopropylquinazoline-7-carboxamide]: 456 nM. In the case of `N[C@H]1CC[C@H](Nc2ncc3cccc(OC4CCOCC4)c3n2)CC1` [Example 178, trans-N-[8-(tetrahydro-2H-pyran-4-yloxy)quinazolin-2-yl]cyclohexane-1,4-diamine], the Ki came to 744 nM. Compared with the last molecule, the Ki is about 1.6-fold higher. Same read-out and setting: next, `O=C(N[C@H]1CC[C@H](CO)CC1)c1ccc2cnc(N[C@H]3CC[C@H](O)CC3)nc2c1` [Example 345, 2-[(trans-4-hydroxycyclohexyl)amino]-N-[trans-4-(hydroxymethyl)cyclohexyl]quinazoline-7-carboxamide]: 885 nM. On the same count and under the same terms, next, `O=C(CCc1cccc(C(F)(F)F)c1)Nc1cc2cc(-c3cn[nH]c3)ccc2cn1` [Example 42, N-[6-(1H-pyrazol-4-yl)isoquinolin-3-yl]-3-[3-(trifluoromethyl)phenyl]propanamide]: 5 nM.

With `COC(C)(C)CCOc1cccc2cnc(N[C@H]3CC[C@H](O)CC3)nc12` [Example 241, trans-4-{[8-(3-methoxy-3-methylbutoxy)quinazolin-2-yl]amino}cyclohexanol], the inhibition constant Ki was found to be 98 nM.
